Columns and labels:
filaggrin protein = assay: Amount of filaggrin protein (western blotting) in cultured human keratinocytes exposed to a gaseous phase (drying); type: cell-based; details: culture in the presence of 10% glycerol, FIG. 3
Procedure: (§1) Normal keratinocytes of human preputial origin and 3T3 cells of mouse origin were used.
(§2) The culture medium was DMEM-Ham's F12 (3:1) containing hydrocortisone, cholera enterotoxin, epidermal growth factor, insulin and 10% FBS.
(§3) The keratinocytes were cultured according to the method described in Rheinwald et al., Cell, 6, 331-344(1975).
(§4) An outline is given below. 3T3 cells were treated with mitomycin C and used as a feeder layer. Normal human keratinocytes (1×10^5 cells) were inoculated onto mitomycin C-treated 3T3 cells and cultured at 37° C. in a 95% air-5% carbon dioxide environment until they became confluent. They were exposed to a gaseous phase by removing the culture supernatant. Each test substance was added 30 minutes before exposed to a gaseous phase, followed by incubation at 37° C. The culture to which no test sample was added was used as a control. The exposure to a gaseous phase was carried out at 37° C. for 0-6 hours.
After each test substance was added to the aforesaid culture system and the cells were exposed to a gaseous phase for a predetermined period of time, protein was extracted from the cells. According to a conventional method, filaggrin protein or filaggrin protein precursor (profilaggrin) was determined by western blotting. An outline is given below. […] The quantitative analysis of bands was carried out with NIH Image (analytical program). […]

filaggrin gene = assay: Expression level of the filaggrin gene (RT-PCR) in cultured human keratinocytes exposed to a gaseous phase (drying); type: cell-based; details: drying stimulus; for Relative expression level of filaggrin gene (%) Mean: no treatment = 100
Procedure: as §1, §2, §3, §4
After each test substance was added to the aforesaid culture system and the cells were exposed to a gaseous phase for a predetermined period of time, RNA was extracted from the cells according to the AGPC method. This RNA was subjected to RT-PCR in the following manner. A primer specific for fillaggrin was prepared on the basis of the base sequence of filaggrin which is reported in McKinley-Grant L. J. et al., Proc. Natl. Acad. Sci. U.S.A., 86, 4848-4852(1989). In order to assay mRNA for filaggrin, RT-PCR was carried out by converting mRNA to cDNA with the aid of reverse transcriptase. Using this cDNA as a template with the aforesaid primer, a polymerase reaction (a well-known reaction) was carried out. After the PCR product was electrophoresed in agarose gel, the resulting gel was soaked in an ethidium bromide solution and assayed for DNA. The quantitative analysis of DNA bands was carried out with NIH Image (analytical program). A correction was made with the aid of glyceraldehyde-3-phosphate dehydrogenase (G3PDH).
(6-8) The efficacies of other active ingredients and combinations of active ingredients in inhibiting a reduction in the expression of the filaggrin gene in cultured human keratinocytes as induced by drying are shown in Tables 1 and 2 below, respectively. In these tables, the degree to which the addition of a drug inhibited a reduction in gene expression is expressed as a percentage, assuming that the gene expression before drying is 100% and the gene expression after drying is […]. In Table 1, each active ingredient was added at an extract concentration of 0.5%. In Table 2, compositions containing the indicated active ingredient(s) at the indicated concentration(s) (in % by weight) were tested.
The aforesaid recovery rates (%) indicate the degree to which the addition of each test substance restored the expression level of the filaggrin gene as compared with that in the untreated group not exposed to a drying stimulus.

Structure (SMILES)	effect on reduction in filaggrin protein level induced by drying (filaggrin protein)	Recovery rate (%) (filaggrin gene; 0.15% by weight)	Relative expression level of filaggrin gene (%) Mean (filaggrin gene; 0.15% by weight)	Recovery rate (%) (filaggrin gene; 0.30% by weight)	Relative expression level of filaggrin gene (%) Mean (filaggrin gene; 0.30% by weight)
OCC(O)CO [glycerol]	inhibiting a reduction in filaggrin protein level	7.5%	51%	60.4%	79%
OC[C@@H](O)[C@H](O)[C@@H](O)CO [xylitol]	–	5.7%	50%	37.7%	67%

From US20040044077A1, “Agents for inhibiting or restoring skin damage caused by drying and method for evaluating the same” (priority 2000, published 2004)
